According to patent US10457710B2, “Antimicrobial peptides, their variants and uses” (priority 2015, dated 2019):
Where a SMILES comes first, the peptide text is derived from it. [ ]: non-standard residue; d: D form.

Experiments:
Assay type in all cases: cell-based
[1] = test system: clinical strains of E. cloacae; assay: MIC, microdilution, clinical strains; conditions: 0.02% BSA, 0.2% acetic acid
Procedure, shortened: (§1)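 Overnight MH agar colonies were suspended in MH broth to 5.0×10^5 cfu/ml, mixed with serial peptide dilutions (0.125–128 μg/ml) and incubated at 37° C for 20 to 24 hours. Yeast MICs were run the same way in potato dextrose broth, and wells were scored visually.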

[2] = test system: clinical strains of E. coli; assay: MIC, microdilution, clinical strains; conditions: microdilution, Muller Hinton broth-cation adjusted, 0.02% BSA, 0.2% acetic acid
Procedure, shortened: as §1

[3] = test system: clinical strains of K. pneumoniae; assay: MIC, microdilution, clinical strains; conditions: 0.02% BSA, 0.2% acetic acid
Procedure, shortened: as §1

[4] = test system: clinical strains of P. aeruginosa; assay: MIC, microdilution, clinical strains; conditions: 0.02% BSA, 0.2% acetic acid
Procedure, shortened: as §1

[5] = test system: clinical strains of Proteus mirabilis; assay: MIC, microdilution, clinical strains; conditions: 0.02% BSA, 0.2% acetic acid
Procedure, shortened: as §1

[6] = test system: clinical strains of S. aureus; assay: MIC, microdilution, clinical strains; conditions: 0.02% BSA, 0.2% acetic acid
Procedure, shortened: as §1

[7] = test system: clinical strains of S. pneumoniae; assay: MIC, microdilution, clinical strains; conditions: 0.02% BSA, 0.2% acetic acid
Procedure, shortened: as §1

[8] = test system: clinical strains of Serratia marcescens; assay: MIC, microdilution, clinical strains; conditions: 0.02% BSA, 0.2% acetic acid
Procedure, shortened: as §1

[9] = test system: clinical strains of Acinetobacter baumannii; assay: MIC, microdilution, clinical strains; design: unit: μg/ml; conditions: 0.02% BSA, 0.2% acetic acid
Method: Minimum inhibition concetrations (MICs) were determined against Escherichia coli (ATCC 25922), Staphylococcus aureus (ATCC 25923), Klebsiella pneumoniae (ATCC 10031) and Pseudomonas aeruginosa (ATCC 27853). Also clinical strains of E. coli, K. pneumoniae, E. cloacae, P. aeruginosa, Serratia marcescens, Proteus mirabilis, S. pneumoniae, Acinetobacter baumannii, A. johnsonii and S. aureus were used for MICs assays. Additionally, clinical strains of yeast including Candida albicans, C. glabrata, C. parapsilosis and C. quillermondiae were used. The susceptibility of these microorganisms to Chain peptides were determined using micro broth dilution assay. Colonies of the respective microorganism from Muller Hinton (MH) agar plates incubated overnight were suspended in MH broth media and final concentration of microorganism was adjusted to 5.0×10^5 cfu/ml. An aliquot of 10 μl of each Chain peptide, or gentamicin, tetracycline as reference antibiotics were added in differing concentrations along with 90 μl of bacterial suspension to 96 well polypropylene plates and incubated at 37° C. for 20 to 24 hours. Concentrations of Chain peptides and reference antibiotics ranged from 0.125 to 128 μg/ml and the MICs were recorded as the lowest concentration with no visual growth of bacteria. Similarly, antifungal MICs were tested in Potato dextrose broth.
Clinical strains of yeasts including Candida albicans, C. glabrata, C. parapsilosis and C. quillermondiae were also tested with the 12 Chain peptides. The minimum inhibitory concentration (MICs) varied between these peptides and are presented in Tables 4a, 4b, 4c and 5a, 5b, 5c. Peptides Chain 105, 201 and 308 are broad spectrum antimicrobials with MICs between 0.5-32 μg/ml against all the bacteria and yeasts tested, except Serratia marcescens and Proteus mirabilis, against which the MICs were between 64-128 μg/ml. Peptide Chain 306 has narrow spectrum activity against E. coli at 1 μg/ml and for the rest of the bacterial strains at >32 μg/ml (FIG. 10c).

C. glabrata = assay: MIC, clinical yeast strains; conditions: D-form peptide, concentrations tested 0.125 to 128 μg/ml
Procedure, shortened: (§2)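 Broth microdilution in Potato dextrose broth, inoculum 5.0×10^5 cfu/ml, peptide 0.125–128 μg/ml, incubated at 37 °C for 20–24 h; MIC taken as lowest concentration without visible growth. A. johnsonii clinical strains were tested the same way in Mueller Hinton broth.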

C. parapsilosis = assay: MIC, clinical yeast strains; conditions: D-form peptide, concentrations tested 0.125 to 128 μg/ml
Procedure, shortened: as §2

Candida albicans = assay: MIC, clinical yeast strains; conditions: D-form peptide, concentrations tested 0.125 to 128 μg/ml
Procedure, shortened: as §2

C. quillermondiae = assay: MIC, clinical yeast strains; conditions: clinical yeast strain 1; D-form peptide; concentrations tested 0.125 to 128 μg/ml
Procedure, shortened: as §2

CC[C@@H](C)[C@@H](NC(=O)[C@@H](Cc1c[nH]c2ccccc12)NC(=O)[C@H](N)CCCCN)C(=O)N[C@@H](C(=O)N[C@H](Cc1c[nH]c2ccccc12)C(=O)N[C@H](CCCNC(=N)N)C(=O)N[C@H](Cc1c[nH]c2ccccc12)C(=O)N[C@H](CCCNC(=N)N)C(=O)N[C@H](Cc1ccccc1)C(=O)N[C@H](CCCCN)C(=O)N[C@H](CCCNC(=N)N)C(=O)O)C(C)C [Chain201D] (H-[dK][dW][dI][dV][dW][dR][dW][dR][dF][dK][dR]-OH)
16: Minimum inhibitory concentration ([2]; Escherichia coli strain 1) | Minimum inhibitory concentration, Candida albicans strain 1 (Candida albicans; clinical yeast strain 1) | Minimum inhibitory concentration, Candida albicans strain 4 (Candida albicans; clinical yeast strain 4)
2: Minimum inhibitory concentration ([1]; Enterobacter cloacae strain 2, Muller Hinton broth-cation adjusted) | Minimum inhibitory concentration ([1]; Enterobacter cloacae strain 3, Muller Hinton broth-cation adjusted) | Minimum inhibitory concentration ([1]; Enterobacter cloacae strain 4, Muller Hinton broth-cation adjusted) | Minimum inhibitory concentration ([3]; Klebsiella pneumoniae strain 1, Muller Hinton broth-cation adjusted) | Minimum inhibitory concentration ([3]; Klebsiella pneumoniae strain 2, Muller Hinton broth-cation adjusted) | Minimum inhibitory concentration ([3]; Klebsiella pneumoniae strain 5, Muller Hinton broth-cation adjusted) | Minimum inhibitory concentration ([4]; Pseudomonas aeruginosa strain 4, Muller Hinton broth-cation adjusted) | Minimum inhibitory concentration ([4]; Pseudomonas aeruginosa strain 5, Muller Hinton broth-cation adjusted) | Minimum inhibitory concentration ([7]; Streptococcus pneumoniae strain 3, Muller Hinton broth-cation adjusted)
>128: Minimum inhibitory concentration ([5]; Proteus mirabilis strain 1, Muller Hinton broth-cation adjusted) | Minimum inhibitory concentration ([5]; Proteus mirabilis strain 4, Muller Hinton broth-cation adjusted) | Minimum inhibitory concentration ([5]; Proteus mirabilis strain 5, Muller Hinton broth-cation adjusted)
128: Minimum inhibitory concentration ([8]; Serratia marcescens strain 5, Muller Hinton broth-cation adjusted)
64: Minimum inhibitory concentration ([5]; Proteus mirabilis strain 3, Muller Hinton broth-cation adjusted) | Minimum inhibitory concentration ([8]; Serratia marcescens strain 1, Muller Hinton broth-cation adjusted) | Minimum inhibitory concentration ([8]; Serratia marcescens strain 2, Muller Hinton broth-cation adjusted) | Minimum inhibitory concentration ([8]; Serratia marcescens strain 3, Muller Hinton broth-cation adjusted) | Minimum inhibitory concentration ([8]; Serratia marcescens strain 4, Muller Hinton broth-cation adjusted) | Minimum inhibitory concentration, C. glabrata strain 4 (C. glabrata; clinical yeast strain 4)
4: Minimum inhibitory concentration ([3]; Klebsiella pneumoniae strain 3, Muller Hinton broth-cation adjusted) | Minimum inhibitory concentration ([3]; Klebsiella pneumoniae strain 4, Muller Hinton broth-cation adjusted) | Minimum inhibitory concentration ([4]; Pseudomonas aeruginosa strain 1, Muller Hinton broth-cation adjusted) | Minimum inhibitory concentration ([4]; Pseudomonas aeruginosa strain 2, Muller Hinton broth-cation adjusted) | Minimum inhibitory concentration ([4]; Pseudomonas aeruginosa strain 3, Muller Hinton broth-cation adjusted) | Minimum inhibitory concentration ([7]; Streptococcus pneumoniae strain 2, Muller Hinton broth-cation adjusted) | Minimum inhibitory concentration ([7]; Streptococcus pneumoniae strain 4, Muller Hinton broth-cation adjusted) | Minimum inhibitory concentration ([7]; Streptococcus pneumoniae strain 5, Muller Hinton broth-cation adjusted) | Minimum inhibitory concentration ([9]; Acinetobacter baumannii strain 1, Muller Hinton broth-cation adjusted) | Minimum inhibitory concentration ([9]; Acinetobacter baumannii strain 2, Muller Hinton broth-cation adjusted) | Minimum inhibitory concentration ([9]; Acinetobacter baumannii strain 3, Muller Hinton broth-cation adjusted) | Minimum inhibitory concentration ([9]; Acinetobacter baumannii strain 4, Muller Hinton broth-cation adjusted) | Minimum inhibitory concentration ([9]; Acinetobacter baumannii strain 5, Muller Hinton broth-cation adjusted)
1: Minimum inhibitory concentration ([1]; Enterobacter cloacae strain 1, Muller Hinton broth-cation adjusted) | Minimum inhibitory concentration ([1]; Enterobacter cloacae strain 5, Muller Hinton broth-cation adjusted) | Minimum inhibitory concentration ([2]; Escherichia coli strain 2) | Minimum inhibitory concentration ([2]; Escherichia coli strain 3) | Minimum inhibitory concentration ([2]; Escherichia coli strain 4) | Minimum inhibitory concentration ([2]; Escherichia coli strain 5) | Minimum inhibitory concentration ([6]; Staphylococcus aureus strain 1, Muller Hinton broth-cation adjusted) | Minimum inhibitory concentration ([6]; Staphylococcus aureus strain 2, Muller Hinton broth-cation adjusted) | Minimum inhibitory concentration ([6]; Staphylococcus aureus strain 3, Muller Hinton broth-cation adjusted) | Minimum inhibitory concentration ([6]; Staphylococcus aureus strain 4, Muller Hinton broth-cation adjusted) | Minimum inhibitory concentration ([6]; Staphylococcus aureus strain 5, Muller Hinton broth-cation adjusted)
8: Minimum inhibitory concentration ([7]; Streptococcus pneumoniae strain 1, Muller Hinton broth-cation adjusted) | Minimum inhibitory concentration, C. glabrata strain 1 (C. glabrata; clinical yeast strain 1) | Minimum inhibitory concentration, C. glabrata strain 2 (C. glabrata; clinical yeast strain 2) | Minimum inhibitory concentration, C. glabrata strain 3 (C. glabrata; clinical yeast strain 3) | Minimum inhibitory concentration, C. parapsilosis strain 1 (C. parapsilosis; clinical yeast strain 1) | Minimum inhibitory concentration, C. parapsilosis strain 2 (C. parapsilosis; clinical yeast strain 2) | Minimum inhibitory concentration, C. parapsilosis strain 3 (C. parapsilosis; clinical yeast strain 3) | Minimum inhibitory concentration, C. parapsilosis strain 4 (C. parapsilosis; clinical yeast strain 4) | Minimum inhibitory concentration, Candida albicans strain 2 (Candida albicans; clinical yeast strain 2) | Minimum inhibitory concentration, Candida albicans strain 3 (Candida albicans; clinical yeast strain 3) | Minimum inhibitory concentration, Candida albicans strain 5 (Candida albicans; clinical yeast strain 5) | Minimum inhibitory concentration, C. quillermondiae strain 1 (C. quillermondiae)
32: Minimum inhibitory concentration ([5]; Proteus mirabilis strain 2, Muller Hinton broth-cation adjusted)
